Experimental data: US11730732B2, “Oral suspension of temozolomide” (Orphelia Pharma, priority 2018, dated 2023)

Assay: Particle size of temozolomide drug substance entering the composition
Type: physicochemical
From the text: Characteristically, the composition of temozolomide according to the invention further contains at least one agent controlling the solid state of temozolomide in suspension. Indeed and during the development of the compositions of the invention, the Applicants observed an erratic recrystallisation of temozolomide after reconstitution of some suspensions with water. […] The recrystallisation triggered dose inhomogeneity within the suspensions, with large crystals settling down the bottom of the bottle or container. Furthermore, large crystals tended to clog the syringe for oral administration. This recrystallisation phenomenon was also observed in compositions containing povidone, the excipient used in the hospital-compounded formulations developed by Trissel et al. and Ambados et al.

particle size d90: < 100 μm
SMILES: Cn1nnc2c(C(N)=O)ncn2c1=O [temozolomide, 3-methyl-4-oxoimidazo[5,1-d][1,2,3,5]tetrazine-8-carboxamide]
